Experimental data as given in patent US12564568B2, “PKC pathway in Parkinson's Disease” (CEDARS-SINAI MEDICAL CENTER, priority 2018, dated 2026).

Columns and labels:
[1] = tested on: tyrosine hydroxylase (TH); format: cell-based, human
Description: iPSC maintenance, mDA neuron differentiation and drug treatments: iPSCs were maintained in E8 media on Matrigel and passaged every 5 days at split ratios from 1:6 to 1:12 as needed using Versene. Only iPSCs between passage 17 and passage 35 were used in this study. For differentiation, iPSCs were grown to ˜80% confluency. Cells were singularized with Accutase (Millipore/Sigma #SCR005) (5 minutes at 37° C.) and plated onto Matrigel-coated 6-well plates (BD Biosciences) at 200K cells per cm^2 (for a fully confluent monolayer) in E8 media with 5 μM Y27632 (StemGent). 24 hours after plating, media was changed to Stage 1 (50% DMEM/F12, 50% Neurobasal, N2, B27-Vitamin A, LDN-193189 (LDN), SB431542 (SB)). Stage 1 media was changed each day (3 mL per well) for 3 days. Media was next switched to Stage 2 (50% DMEM/F12, 50% Neurobasal, N2, B27-Vitamin A, LDN, SB, Purmorphamine (PMN), CHIR99021 (CHIR), Sonic hedgehog (SHH), Fibroblast Growth Factor 8 (FGF8)). Stage 2 media was changed each day (3 mL per well) for 4 days. Media was then switched to Stage 3 (50% DMEM/F12, 50% Neurobasal, N2, B27-Vitamin A, LDN, CHIR, all-trans-Retinoic acid (ATRA)). Stage 3 media was changed each day (3 mL per well) for 4 days. Finally, media was switched to Stage 4 (50% DMEM/F12, 50% Neurobasal, N2, B27+Vitamin A, Brain-Derived Neurotrophic Factor (BDNF), Glial Cell Line-Derived Neurotrophic Factor (GDNF), dibutyryl cyclic-AMP sodium salt (dbCAMP), L-Ascorbic Acid (AA), γ-Secretase inhibitor (DAPT), CHIR, Transforming Growth Factor beta-3 (TGF β3)). Stage 4 media was changed each day (3 mL per well) for 3 days. On day 15, cells were dissociated to single cells using Accutase (20 mins at 37° C.) and gently lifted. Dissociated cells were resuspended in Maturation Medium (50% DMEM/F12, 50% Neurobasal, N2, B27+Vitamin A, BDNF, GDNF, dbCAMP, AA, DAPT, TGF3) plus 5 μM Y27632 and reseeded onto Matrigel-coated 6-well plates at 200 k/cm^2 in 1 mL total volume or onto Matrigel-coated L-glass coverslips in a 24-well plate at 200 k/50 μL drop. Cells were allowed to attach for 45 mins at 37° C. and Maturation Medium was then added to final volumes of 3 mL per well for 6-well plates or 1.5 mL per well for 24-well plates with coverslips. A full medium change was performed 48-hours post-seeding and medium was changed every 3 days until day 30. For drug treatments, cells at day-27 were fed with Maturation Medium containing the indicated drug and cells were analyzed at day 30.
Analytical flow cytometry: Day-30 cultures in 6-well plates were washed once in phosphate buffered saline (PBS) then 1 mL Accutase was added to each well and incubated for 25 mins at 37° C. or until the cells fully lifted. Cells were washed with an additional 2 mL Maturation Medium and very gently triturated until large clumps were no longer visible at which point cells were pelleted by centrifugation (1500 RPM for 3 mins). Cells were gently resuspended in 4% paraformaldehyde (PFA) in PBS and allowed to fix for 10-15 mins at room temperature. Fixed single cells were permeabilized using 1% Trition X-100 (Sigma-Aldrich) and stained using primary antibodies against TH (1:500 Immunostar, 22941), α-synuclein (1:1000 Abcam, ab138501), and MAP2ab (1:1000 Sigma-Aldrich, M1406), or isotype controls at same dilution (Cell Signaling IgG Isotype Control rabbit #3900S and mouse #5415S). Secondary antibodies (Alexa Fluor 488 and 594 donkey anti-mouse and donkey anti-rabbit, Invitrogen) were used at 1:500. Stained samples were quantified on an LSR Fortessa cytometer using BD FACSDiva software.
Immunocytochemistry and imaging: mDA neuron cultures were plated on L-glass coverslips and grown as above. Day 30 neurons were fixed in 4% PFA at room temperature for 10-15 mins. […]

TH = TH gene expression over PEP005 time-course (qPCR); format: cell-based, human; conditions: roughly 8 hours after initial exposure
Description: qPCR: Total cellular RNA was isolated using TRIzol Reagent followed by Qiagen RNeasy Mini kit with DNase treatment. Total RNA (1 μg) was used for cDNA synthesis using the Quantitate Reverse Transcription Kit for cDNA synthesis for PCR (Qiagen). Real-time PCR was performed using the SYBR Green Supermix (BIO-RAD). The levels of expression of respective genes were normalized to corresponding GAPDH values and shown as fold change relative to the value of the control sample (ΔΔCt method)

LAMP1 = LAMP1 level in day 30 mDA cultures after PEP005 (western blot); format: cell-based, human
[2] = In vitro blood plasma binding, human; format: in vitro ADME
From the text: (§1) This may complicate IV delivery.

PKC C1 domains = conditions: cited from earlier work
[3] = In vitro blood plasma binding, rat; format: in vitro ADME
From the text: as §1

LC3 = LC3 level in day 30 DaNs after PEP treatment (western blot); format: cell-based, human; conditions: PD cells

**Q.** Which TH by immunostaining ([1]; PEP005-treated mDA cultures) does the source give for `C/C=C(/C)C(=O)O[C@H]1C(C)=C[C@]23C(=O)[C@@H](C=C(CO)[C@@H](O)[C@]12O)[C@H]1[C@@H](C[C@H]3C)C1(C)C` [PEP005, ingenol-3-angelate] here?
**A.** enhanced

**Q.** What about the “amount of TH enzyme present” value ([1]; both control and PD cultures, 3 days treatment from day 27, listed as PEP) of the same molecule?
**A.** increase

**Q.** What about the “number of TH neurons (flow cytometry)” value ([1]; d30 mDA cultures, PEP005 72 hrs) of the same molecule?
**A.** did not result in an increased number

**Q.** And the “level of TH expression in neurons (flow cytometry)” value ([1]; d30 mDA cultures, PEP005 72 hrs, relative to untreated)?
**A.** significantly higher levels

**Q.** And the “TH expression (qPCR)” value (TH)?
**A.** upregulated

**Q.** And the LAMP1 protein (LAMP1; PD cells treated with PEP005)?
**A.** does not appear to be replicated

**Q.** What about the LAMP1 protein (LAMP1; PD cells treated with PEP005, listed as PEP) of the same molecule?
**A.** neither LAMP1 nor LC3 respond

**Q.** What about the LAMP1 protein (LAMP1; control and PD cells / all iPSC lines, 1 μM PEP005 for 3 days) of the same molecule?
**A.** increase

**Q.** And the LAMP1 protein (LAMP1; control cells treated with PEP005)?
**A.** increase

**Q.** What about the plasma binding [2] of the same molecule?
**A.** highly efficient plasma binding

**Q.** And the “affinity for PKC C1 domains” value (PKC C1 domains)?
**A.** subnanomolar

**Q.** What about the plasma binding [3] of the same molecule?
**A.** highly efficient plasma binding

**Q.** And the LC3 response (LC3)?
**A.** neither LAMP1 nor LC3 respond
